Source: patent US20260138990A1, “TRICYCLIC FUSED IMIDAZOLE COMPOUNDS AS CD38 MODULATORS AND USES THEREOF” (AEOVIAN PHARMACEUTICALS, INC., priority 2023, published 2026)

How the values were obtained:
human CD38 = biological target: T1, human CD38 (Homo sapiens, UniProt P28907); test: NAD+ cyclase activity assay with human recombinant CD38 protein (ε-NAD fluorescence); assay type: biochemical; details: 1.9 nM human CD38, substrate ε-NAD, 30 min preincubation, fluorescence 300/410 nm
T1 construct: purchased Bio-Techne GmbH AVI2404
T1 sequence (P28907 1-300): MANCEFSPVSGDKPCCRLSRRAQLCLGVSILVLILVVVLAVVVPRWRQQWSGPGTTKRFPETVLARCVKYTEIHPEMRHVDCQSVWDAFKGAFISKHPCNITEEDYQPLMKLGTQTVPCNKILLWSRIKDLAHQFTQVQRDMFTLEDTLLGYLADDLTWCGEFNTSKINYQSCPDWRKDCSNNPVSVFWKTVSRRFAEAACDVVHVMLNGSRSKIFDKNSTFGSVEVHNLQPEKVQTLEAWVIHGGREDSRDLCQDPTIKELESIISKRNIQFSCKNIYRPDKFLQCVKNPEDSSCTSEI
Description: (§1) Example 4: NAD^+ Cydase Activity Assay with Human or Mouse Recombinant CD38 Protein
(§2) The following assay was used to determine the ability of compounds of the invention to inhibit the hydrolysis of NAD^+ by the human or mouse enzyme, CD38.
(§3) Reaction buffer: 40 mM HEPES/NaOH pH 7.5, 250 mM sucrose, 0.01% Tween
(§4) Final concentrations: 0.6 nM mouse CD38 (4947-AC, Bio-Techne GmbH) 1.9 nM human CD38 (AVI2404, Bio-Techne GmbH)
(§5) Substrate: […] Nicotinamide 1,N6-ethenoadenine dinucleotide (&-NAD)
(§6) Read-out: Fluorescence intensity (extinction 300 nm/emission 410 nm)
(§7) Required reaction buffer, required CD38 concentration in reaction buffer and required e-NAD concentration in reaction buffer were prepared. Thereafter, 8 μL of CD38 in reaction buffer was added to High Control and compound concentration wells in 384 well plate (Corning #4514, 384 well, nonbinding surface, low volume, round bottom) and 8 μL of reaction buffer to Low Control. Compound dilutions were transferred via pintool technology that transfers 42.5 nL compound dilutions (12-point dose-response with factor three dilutions in 100% DMSO) well-to-well. Plate was subsequently shaken for 15 s at 1450 rpm and sealed for incubation for 30 min at room temperature. Thereafter, 2 μL of e-NAD in reaction buffer were added with Integra Voyager. After shaking for 15 s at 1450 rpm, plate was sealed, and assay signal were measured continuously with PHERAstar® fluorescence intensity module (extinction 300 nm/emission 410 nm).
(§8) Dose-response curves were constructed using twelve-pointfactor three dilutions in triplicates per plate. High control (full enzyme activity) was set to assay signal of CD38 and e-NAD in presence of vehicle (DMSO) and Low control (full enzyme inhibition) was set to assay signal of e-NAD and vehicle (DMSO) in absence of CD38. For data analysis, fluorescent signal of traces corresponding to each compound concentration and High and Low control were monitored over time. Each run, High Control (full enzyme activity) was fitted to Linear equation via GraphPad Prism to determine CD38 activity from the slope and determine the time interval of linear phase of reaction to account for minor fluctuations. Thereafter, slopes of all compound concentrations were determined via fitting to same linear equation (GraphPad Prism) over the same time interval as determined for High control. […] Unless otherwise stated, fitting of curves were fixed to 100%-inhibition and unlocked for 0%-inhibition.

mouse CD38 = biological target: T2, mouse CD38 (Mus musculus, UniProt P56528); test: NAD+ cyclase activity assay with mouse recombinant CD38 protein (ε-NAD fluorescence); assay type: biochemical; details: 0.6 nM mouse CD38, substrate ε-NAD, 30 min preincubation, fluorescence 300/410 nm
T2 construct: purchased Bio-Techne GmbH 4947-AC
T2 sequence (P56528 1-304): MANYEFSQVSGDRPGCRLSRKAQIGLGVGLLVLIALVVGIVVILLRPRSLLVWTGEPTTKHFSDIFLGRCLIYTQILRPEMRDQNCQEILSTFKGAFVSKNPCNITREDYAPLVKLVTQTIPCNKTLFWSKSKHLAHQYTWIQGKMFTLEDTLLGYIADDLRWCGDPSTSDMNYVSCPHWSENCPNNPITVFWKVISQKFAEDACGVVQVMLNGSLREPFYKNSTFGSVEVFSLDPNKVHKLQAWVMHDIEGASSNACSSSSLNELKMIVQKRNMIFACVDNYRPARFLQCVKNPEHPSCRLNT
Description: as §1, §2, §3, §4, §5, §6, §7, §8

| Compound | IC50 (human CD38) | IC50 (mouse CD38) |
| --- | --- | --- |
| C[C@@H]1C[C@H](CC(F)(F)F)CC[C@@H]1NC(=O)c1cc(Cl)c2c(c1)-c1cncn1CCO2 (relative stereo) [Compound 184A, 8-Chloro-N-(cis-2-methyl-cis-4-(2,2,2-trifluoroethyl)cyclohexyl)-5,6-dihydrobenzo[f]imidazo[1,5-d][1,4]oxazepine-10-carboxamide] | 100 to 1000 nM | – |
| C[C@@H]1C[C@H](CC(F)(F)F)CC[C@@H]1NC(=O)c1cc(F)c2c(c1)-c1cncn1CCO2 (relative stereo) [Compound 186A, 8-Fluoro-N-(cis-2-methyl-cis-4-(2,2,2-trifluoroethyl)cyclohexyl)-5,6-dihydrobenzo[f]imidazo[1,5-d][1,4]oxazepine-10-carboxamide] | 30 to 100 nM | – |
| O=C(N[C@@H]1CCCOC1)c1ccc2c(n1)-n1cncc1CCO2 [Compound 42A, (R)—N-(tetrahydro-2H-pyran-3-yl)-6,7-dihydroimidazo[1,5-d]pyrido[3,2-b][1,4]oxazepine-2-carboxamide] | – | 10 to 100 nM |
| O=C(N[C@@H]1CCCOC1)c1ccc2c(n1)-n1cnc(c1)CCO2 [Compound 43A, (Z)—N—((R)-Tetrahydro-2H-pyran-3-yl)-5,6-dihydro-1,4-(metheno)pyrido[3,2-b][1,4,6]oxadiazonine-10-carboxamide] | > 1000 nM | – |
| COc1nc2cc(NC(=O)c3ccc4c(c3)-c3cncn3CCO4)ccc2s1 [Compound 44A, N-(2-Methoxybenzo[d]thiazol-5-yl)-5,6-dihydrobenzo[f]imidazo[1,5-d][1,4]oxazepine-10-carboxamide] | < 30 nM | – |
| COCCOc1nc2cc(NC(=O)c3ccc4c(c3)-c3cncn3CCO4)ccc2s1 [Compound 45A, N-(2-(2-Methoxyethoxy)benzo[d]thiazol-5-yl)-5,6-dihydrobenzo[f]imidazo[1,5-d][1,4]oxazepine-10-carboxamide] | < 30 nM | – |
| COCCO[C@H]1CC[C@H](NC(=O)c2cc3c(c(C)c2C)OCCn2cncc2-3)CC1 [Compound 179A, N-((1r,4r)-4-(2-Methoxyethoxy)cyclohexyl)-8,9-dimethyl-5,6-dihydrobenzo[f]imidazo[1,5-d][1,4]oxazepine-10-carboxamide] | 100 to 1000 nM | – |
| Cc1c(C(=O)NC2CCC(F)(F)CC2)cc2c(c1C)OCCn1cncc1-2 [Compound 180A, N-(4,4-Difluorocyclohexyl)-8,9-dimethyl-5,6-dihydrobenzo[f]imidazo[1,5-d][1,4]oxazepine-10-carboxamide] | 100 to 1000 nM | – |
| O=C(NC1CCCC(C(F)(F)F)C1)c1cc(Cl)c2c(c1)-c1cncn1CCO2 (centres unmarked) [Compound 181A, 8-Chloro-N-(3-(trifluoromethyl)cyclohexyl)-5,6-dihydrobenzo[f]imidazo[1,5-d][1,4]oxazepine-10-carboxamide] | < 30 nM | – |
| Cc1cc(CC(F)(F)F)ccc1NC(=O)c1cc(Cl)c2c(c1)-c1cncn1CCO2 [Compound 182A, 8-Chloro-N-(2-methyl-4-(2,2,2-trifluoroethyl)phenyl)-5,6-dihydrobenzo[f]imidazo[1,5-d][1,4]oxazepine-10-carboxamide] | 30 to 100 nM | – |
| CC1CC(CC(F)(F)F)CCC1NC(=O)c1cc(Cl)c2c(c1)-c1cncn1CCO2 (centres unmarked) [Compound 183A, 8-Chloro-N-(2-methyl-4-(2,2,2-trifluoroethyl)cyclohexyl)-5,6-dihydrobenzo[f]imidazo[1,5-d][1,4]oxazepine-10-carboxamide] | < 30 nM | – |
| CC1CC(CC(F)(F)F)CCC1NC(=O)c1cc(F)c2c(c1)-c1cncn1CCO2 (centres unmarked) [Compound 185A, 8-Fluoro-N-(2-methyl-4-(2,2,2-trifluoroethyl)cyclohexyl)-5,6-dihydrobenzo[f]imidazo[1,5-d][1,4]oxazepine-10-carboxamide] | < 30 nM | – |
| O=C(N[C@H]1CC[C@H](OCC(F)(F)F)CC1)c1cc2c(c(F)c1F)OCCn1cncc1-2 [Compound 187A, 8,9-Difluoro-N-((1r,4r)-4-(2,2,2-trifluoroethoxy)cyclohexyl)-5,6-dihydrobenzo[f]imidazo[1,5-d][1,4]oxazepine-10-carboxamide] | < 30 nM | – |
| O=C(N[C@H]1CC[C@@H](OCC(F)(F)F)CC1)c1cc2c(c(F)c1F)OCCn1cncc1-2 [Compound 188A, 8,9-Difluoro-N-((1s,4s)-4-(2,2,2-trifluoroethoxy)cyclohexyl)-5,6-dihydrobenzo[f]imidazo[1,5-d][1,4]oxazepine-10-carboxamide] | 100 to 1000 nM | – |
| Cc1c(C(=O)NC2CCC(OCC(F)(F)F)CC2)cc2c(c1C)OCCn1cncc1-2 (centres unmarked) [Compound 189A, 8,9-Dimethyl-N-(4-(2,2,2-trifluoroethoxy)cyclohexyl)-5,6-dihydrobenzo[f]imidazo[1,5-d][1,4]oxazepine-10-carboxamide] | 100 to 1000 nM | – |
| COCCO[C@H]1CC[C@H](NC(=O)c2cc3c(c(Cl)c2C)OCCn2cncc2-3)CC1 [Compound 191A, 8-Chloro-N-((1r,4r)-4-(2-methoxyethoxy)cyclohexyl)-9-methyl-5,6-dihydrobenzo[f]imidazo[1,5-d][1,4]oxazepine-10-carboxamide] | 30 to 100 nM | – |

Results, then the compound that gave them:

| IC50 (human CD38) | IC50 (mouse CD38) | Compound |
| --- | --- | --- |
| < 30 nM | < 1 nM | C[C@H]1CCCC[C@@H]1NC(=O)c1cc(F)c2c(c1)-c1cncn1CCO2 (relative stereo) [Compound 174A, 8-Fluoro-N-(trans-2-methylcyclohexyl)-5,6-dihydrobenzo[f]imidazo[1,5-d][1,4]oxazepine-10-carboxamide] |
| < 30 nM | 1 to 10 nM | C[C@@H]1CCCC[C@@H]1NC(=O)c1cc(F)c2c(c1)-c1cncn1CCO2 (relative stereo) [Compound 175A, 8-Fluoro-N-(cis-2-methylcyclohexyl)-5,6-dihydrobenzo[f]imidazo[1,5-d][1,4]oxazepine-10-carboxamide] |
| < 30 nM | 1 to 10 nM | C[C@@H]1CCC[C@@H](C)C1NC(=O)c1cc(F)c2c(c1)-c1cncn1CCO2 (relative stereo) [Compound 177A, N-(trans-2-cis-6-Dimethylcyclohexyl)-8-fluoro-5,6-dihydrobenzo[f]imidazo[1,5-d][1,4]oxazepine-10-carboxamide] |
| < 30 nM | < 1 nM | O=C(N[C@@H]1CCCOC1)c1ccc2c(c1)-c1cncn1CCO2 [Compound 1A, (R)—N-(Tetrahydro-2H-pyran-3-yl)-5,6-dihydrobenzo[f]imidazo[1,5-d][1,4]oxazepine-10-carboxamide] |
| < 30 nM | 1 to 10 nM | O=C(N[C@@H]1CCS(=O)(=O)C1)c1ccc2c(c1)-c1cncn1CCO2 [Compound 2A, (R)—N-(1,1-Dioxidotetrahydrothiophen-3-yl)-5,6-dihydrobenzo[f]imidazo[1,5-d][1,4]oxazepine-10-carboxamide] |
| < 30 nM | 1 to 10 nM | COCCO[C@H]1CC[C@H](NC(=O)c2ccc3c(c2)-c2cncn2CCO3)CC1 [Compound 3A, N-((1r,4r)-4-(2-Methoxyethoxy)cyclohexyl)-5,6-dihydrobenzo[f]imidazo[1,5-d][1,4]oxazepine-10-carboxamide] |
| < 30 nM | 1 to 10 nM | CS(=O)(=O)N1CCC(NC(=O)c2ccc3c(c2)-c2cncn2CCO3)CC1 [Compound 4A, N-(1-(Methylsulfonyl)piperidin-4-yl)-5,6-dihydrobenzo[f]imidazo[1,5-d][1,4]oxazepine-10-carboxamide] |
| < 30 nM | < 1 nM | O=C(NC1CCC(F)(F)CC1)c1ccc2c(c1)-c1cncn1CCO2 [Compound 5A, N-(4,4-Difluorocyclohexyl)-5,6-dihydrobenzo[f]imidazo[1,5-d][1,4]oxazepine-10-carboxamide] |
